# Reference: patent publication US10407466B2 (Apellis Pharmaceuticals, Inc., priority 2005, dated 2019)
# Like-named read-outs stand apart in the source and are kept apart here. Marks after values point to notes of the source that are not given here. Bridge positions count the residues as written; N and C are the ends. Square brackets hold non-standard residues; d marks the D form. 2Nal = N[C@@H](Cc1ccc2ccccc2c1)C(=O)O
# Experiments:
# [1] = system: choroidal neovascularization (CNV) in C57BL/6 mice; assay: Laser-induced CNV in a mouse model, intravitreal injection; assay type: in vivo
# Description: C57BL/6 mice (The Jackson Laboratory) were anesthetized with a mixture of ketamine/xylazine (8:1) and the pupils were dilated with a single drop of 1% tropicamide. Krypton red laser photocoagulation (50-μm spot size, 0.05 s duration, 250 mW) will be used to generate laser spots in surrounding the optic nerve by using a hand-held coverslip as a contact lens. Formation of a bubble at the laser spot indicated rupture of Bruch's membrane. Multiple laser spots were generated in each eye.
# Different groups of mice were injected with different quantities of this molecule or of mouse albumin (as a control) to determine the effect of dosage on the efficacy and toxicity of VCP. Briefly, after anesthesia and dilation of the pupil, the anterior chamber was entered via the limbus with a 28-gauge needle to decompress the eye. Under an operating microscope, which allows visualization of the retina, a 32-gauge (blunt) needle was passed through a scleral incision, just behind the limbus, into the vitreous cavity.
# Seven days after CNV induction incidence of CNV was determined. Briefly, the mice were perfused with a FITC-dextran (Sigma-Aldrich) solution just prior to sacrifice. After the eyes were excised and fixed for 1 h in 10% phosphate-buffered formalin, RPE-choroid-scleral flat mounts were prepared as follows. The cornea and the lens were removed and the neurosensory retina carefully dissected from the eyecup. Five radial cuts were from the edge of the eyecup to the equator; the sclera-choroidretinal pigment epithelium (RPE) complex was flat-mounted, with the sclera facing down, on a glass slide in Aquamount. The flat mounts were stained with an anti-elastin specific monoclonal antibody (Sigma-Aldrich) and then with a CY3-conjugated secondary antibody (Sigma-Aldrich) at a suitable concentration, e.g., at a 1/200 dilution of a 1.0 mg/ml stock solution. Mounts were observed under confocal microscopy (LSM510, Zeiss). The prominent neovascular growth stained green whereas the underlying elastin in the Bruch's membrane stained red within a laser spot. Images were analyzed with the image analysis software AxioVision (Zeiss). The amount of CNV was determined by measuring the total green-fluorescent surface area in each picture. A mean green-fluorescent area was obtained for the various groups and compared using student t-test for comparisons between groups and ANOVA for comparison among multiple groups. […] Deposition of a variety of different complement components is also measured using immunological techniques and/or RT-PCR.
# Seven days after CNV induction, incidence of CNV was determined. Just prior to sacrifice, the mice were perfused with a FITC-dextran (Sigma-Aldrich) solution. After the eyes were excised and fixed in 10% phosphate-buffered formalin, RPE-choroid-scleral flat mounts were prepared and stained with an anti-elastin specific monoclonal antibody (Sigma-Aldrich) and then with a CY3-conjugated secondary antibody (Sigma-Aldrich). Mounts were observed under confocal microscopy (LSM510, Zeiss). The prominent neovascular growth stained green whereas the underlying elastin in the Bruch's membrane stained red within a laser spot. […] Images were analyzed with the image analysis software AxioVision (Zeiss). The amount of CNV was determined by measuring the total green-fluorescent surface area in each picture. A mean green-fluorescent area was obtained for the various groups and compared using student t-test for comparisons between groups and ANOVA for comparison among multiple groups. Results are described in Table 2 and in the graph in FIG. 4.
# non-primate C3 = conditions: reported; cited from earlier work
# [2] = in vivo; cited from earlier work
# [3] = Half-life in vitro in the vitreous; assay type: in vitro ADME
# Procedure: The inventors' calculations establish, for the first time, the feasibility of substantially inhibiting C3 activation at levels at or above those expected to be present in the vitreous of a subject with wet ARMD by sustained intravitreal delivery of amounts as little as 5 μg/day of a therapeutic agent, which amounts may, according to the invention, be delivered by intravitreal implant technology over prolonged periods of time (as described further below). The inventors' calculations also establish, for the first time, the feasibility of substantially inhibiting C3 activation at levels at or above those expected to be present in the vitreous of a subject with dry ARMD by sustained intravitreal delivery of amounts as low as 2 μg/day of a therapeutic agent, which amounts may be delivered over prolonged periods of time by intravitreal implant technology according to the present invention.
molecule,measurement,setting,value
Ac-ICV(2-Nal)QDWGAHRCT-CONH2 (Ac-ICV[2Nal]QDWGAHRCT-NH2; disulfide 2-12 (inferred)) [Ac-V4(2-Nal)/H9A],mean area of CNV relative to either no treatment or administration of albumin,"[1]; 30 μg intravitreal, 24 hrs after laser induction, seven days after CNV induction",statistically significant reduction
same,effectiveness compared with VCP on a μg basis,"[1]; 30 μg/eye, difference not statistically significant at these sample sizes",somewhat more effective than VCP
same,development of CNV in an animal model,[1]; summary of Example 1,effective in significantly inhibiting the development of CNV
CC[C@H](C)[C@H](N)C(=O)N[C@H]1CSSC[C@@H](C(=O)N[C@H](C(N)=O)[C@@H](C)O)NC(=O)[C@H](CCCN=C(N)N)NC(=O)[C@H](Cc2cnc[nH]2)NC(=O)[C@H](Cc2cnc[nH]2)NC(=O)CNC(=O)[C@H](Cc2c[nH]c3ccccc23)NC(=O)[C@H](CC(=O)O)NC(=O)[C@H](CCC(N)=O)NC(=O)[C@H](C(C)C)NC(=O)[C@H](C(C)C)NC1=O [compstatin],affinity for non-primate C3 compared with human or non-human primate C3,non-primate C3,lower
same,"Mean Difference (I-J), FldAreaGreen","[1]; I = Compstatin 30 ug, J = VCP 30 ug, day 7",−317.4
same,"Mean Difference (I-J), FldAreaGreen","[1]; I = Mouse Albumin Control, J = test agent 30 ug/eye, day 7",3286*
same,"Mean Difference (I-J), FldAreaGreen","[1]; I = No-treatment control, J = test agent 30 ug/eye, green-fluorescent CNV area, day 7, Tamhane",5195*
same,"Mean Difference (I-J), FldAreaGreen","[1]; I = test agent 30 ug/eye, J = Mouse Albumin Control, day 7",−3286*
same,"Mean Difference (I-J), FldAreaGreen","[1]; I = test agent 30 ug/eye, J = No-treatment control, day 7",−5195*
same,"Mean Difference (I-J), FldAreaGreen","[1]; I = test agent 30 ug/eye, J = VCP 10 ug, day 7",−5862*
same,half-life,[2],< 0.25 h
CC[C@H](C)[C@H](NC(C)=O)C(=O)N[C@H]1CSSC[C@@H](C(=O)N[C@H](C(N)=O)[C@@H](C)O)NC(=O)[C@H](CCCNC(=N)N)NC(=O)[C@H](Cc2cnc[nH]2)NC(=O)[C@H](C)NC(=O)CNC(=O)[C@H](Cc2c[nH]c3ccccc23)NC(=O)[C@H](CC(=O)O)NC(=O)[C@H](CCC(N)=O)NC(=O)[C@H](Cc2cn(C)c3ccccc23)NC(=O)[C@H](C(C)C)NC1=O [Ac-V4(1-MeW)/H9A],half-life,[3],~6.9 h
